# In patent US9958439B2, “Carbohydrate detection” (RICHTER LIFE SCIENCE DEVELOPMENT AB, priority 2012, dated 2018):
# Where two headings read alike, the source gives them in different places.
# Experiments:
# [1] = Summary of the method: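 LCO probes at 3 μM mixed with serial two-fold carbohydrate dilutions in water (10–0.039 or 5–0.019 mg/ml), run in triplicate. Excitation scanned 300–500 nm with emission at 545 nm; detection based on reproducible λmax or RFU shift against the no-carbohydrate control, with linear regression of RFU on concentration.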
# [2] = for RFU change (Correlation analysis): probe-specific excitation λ, emission 545 nm; for carbohydrate can be detected and/or differentiated by the LCO: conclusion from change in signal magnitude and/or shift in λmax; for Gradient Parameters (gradient of regression line) / Linear relationship / Quality of Gradient: linear regression
# Summary of the method: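 LCO probes at 3 μM mixed with serial twofold carbohydrate dilutions in dH2O (10–0.039 or 5–0.019 mg/ml, depending on carbohydrate). Excitation scanned 300–500 nm, emission read at 545 nm; detection defined as reproducible shift in λmax and/or RFU relative to negative control, with linear regression of RFU against concentration.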
# [3] = remark: listed apart in the source
# Summary of the method: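 LCO probes (3 μM) were added to serial two-fold dilutions of carbohydrate suspensions in dH2O, with excitation scanned 300–500 nm and emission at 545 nm. Detection was a reproducible λmax and/or RFU change versus no-carbohydrate control. RFU was regressed linearly against concentration at the λmax or the lowest-background excitation.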
# [4] = for RFU change (Correlation analysis): probe-specific excitation λ, emission 545 nm; for Gradient Parameters (gradient of regression line) / Quality of Gradient: linear regression
# Summary of the method: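 LCO probes at 3 μM mixed with serial two-fold dilutions of carbohydrate in dH2O (10–0.039 or 5–0.019 mg/ml, depending on carbohydrate), in triplicate. Excitation scanned 300–500 nm or fixed per probe (λmax or lowest background), emission at 545 nm. Detection taken as reproducible λmax/RFU shift vs no-carbohydrate control; RFU regressed linearly on concentration.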
# [5] = for RFU change (Correlation analysis) / RFU change (Signal deviation with increasing [Carbohydrate]) / λmax change: 3 μM probe; for RFU change (Correlation analysis): probe-specific excitation λ, emission 545 nm; for RFU change (Signal deviation with increasing [Carbohydrate]) / λmax change: spectral analysis, Excitation 300-500, Emission 545; for carbohydrate can be detected and/or differentiated by the LCO: conclusion from change in signal magnitude and/or shift in λmax; for Gradient Parameters (gradient of regression line) / Linear relationship / Quality of Gradient: linear regression
# Summary of the method: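 Each LCO probe at 3 μM was added to two-fold serial dilutions of carbohydrate in dH2O (10–0.039 mg/ml for β-1,3-glucan, cellulose, chitin; 5–0.019 mg/ml for the others), run in triplicate. Excitation spectra were scanned 300–500 nm with emission at 545 nm. Detection was a reproducible λmax and/or RFU shift versus negative control, with linear regression of RFU against concentration.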
# [6] = remark: listed apart in the source
# Summary of the method: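 3 μM of each LCO probe was added to serial two-fold carbohydrate dilutions in water (10–0.039 or 5–0.019 mg/ml). Excitation spectra were scanned 300–500 nm with emission at 545 nm, in triplicate. Detection was defined as a reproducible shift in λmax and/or RFU versus negative control, with linear regression of RFU against concentration.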
# [7] = glucose concentration vs RFU, linear regression
# [8] = Glycogen 5-0.019 mg/ml, 3 μM probe, spectral analysis, Excitation 300-500, Emission 545
# [9] = sodium alginate concentration vs RFU, linear regression
# [10] = Cellulobiose 5-0.019 mg/ml, 3 μM probe, spectral analysis, Excitation 300-500, Emission 545
# [11] = cellulobiose concentration vs RFU
# [12] = β-1,3-glucan concentration vs RFU
# [13] = Chondroitin Sulfate A 5-0.019 mg/ml, 3 μM probe, spectral analysis, Excitation 300-500, Emission 545
# [14] = Chondroitin Sulfate A concentration vs RFU, linear regression
smiles,measurement,setting,value
"Cl.Cl.N=C(N)NCCC[C@H](NC(=O)Cc1cc(-c2cccs2)sc1-c1ccc(-c2sc(-c3cccs3)cc2CC(=O)N[C@@H](CCCNC(=N)N)C(=O)O)s1)C(=O)O [pHTA-Arg, penta Hydrogen Thiophene Acetic acid Arginine]",RFU change (Correlation analysis),"[1]; Glucose 5-0.019 mg/ml, 3 μM probe, probe-specific excitation λ, emission 545 nm",Unclear
same,RFU change (Signal deviation with increasing [Carbohydrate]),"[1]; Glucose 5-0.019 mg/ml, 3 μM probe, spectral analysis, Excitation 300-500, Emission 545",Increases
same,Gradient Parameters (gradient of regression line),[1]; [7],17.9 ± 38.1
same,Quality of Gradient,[1]; [7],Horizontal
same,Sensitivity,[1]; to glucose,No
same,RFU change (Correlation analysis),"[2]; Glycogen 5-0.019 mg/ml, 3 μM probe",Increases
same,RFU change (Signal deviation with increasing [Carbohydrate]),[2]; [8],Increases
same,λmax change,[2]; [8],Redshift
same,carbohydrate can be detected and/or differentiated by the LCO,[2]; Glycogen,can be detected and/or differentiated
same,RFU change (Correlation analysis),"[2]; Heparin 5-0.019 mg/ml, 3 μM probe",Increases
same,RFU change (Signal deviation with increasing [Carbohydrate]),"[2]; Heparin 5-0.019 mg/ml, 3 μM probe, spectral analysis, Excitation 300-500, Emission 545",Increases
same,carbohydrate can be detected and/or differentiated by the LCO,[2]; Heparin,can be detected and/or differentiated
same,Gradient Parameters (gradient of regression line),[2]; glycogen concentration vs RFU,72.8 ± 13.4
same,Linear relationship,[2]; glycogen concentration vs RFU,Significant
same,Quality of Gradient,[2]; glycogen concentration vs RFU,Positive
same,Gradient Parameters (gradient of regression line),[2]; heparin concentration vs RFU,29.3 ± 8.6
same,Linear relationship,[2]; heparin concentration vs RFU,Significant
same,Quality of Gradient,[2]; heparin concentration vs RFU,Positive
same,Sensitivity,[2]; to glycogen,Yes
same,Sensitivity,[2]; to heparin,Yes
same,RFU change (Correlation analysis),"[3]; Sodium alginate 5-0.019 mg/ml, 3 μM probe, probe-specific excitation λ, emission 545 nm",Increases
same,RFU change (Signal deviation with increasing [Carbohydrate]),"[3]; Sodium alginate 5-0.019 mg/ml, 3 μM probe, spectral analysis, Excitation 300-500, Emission 545",Increases
same,carbohydrate can be detected and/or differentiated by the LCO,"[3]; Sodium alginate, conclusion from change in signal magnitude and/or shift in λmax",can be detected and/or differentiated
same,Gradient Parameters (gradient of regression line),[3]; [9],78.6 ± 18.6
same,Linear relationship,[3]; [9],Significant
same,Quality of Gradient,[3]; [9],Positive
same,Sensitivity,[3]; to sodium alginate,Yes
same,RFU change (Correlation analysis),"[4]; Amylose 5-0.019 mg/ml, 3 μM probe",Unclear
same,RFU change (Signal deviation with increasing [Carbohydrate]),"[4]; Amylose 5-0.019 mg/ml, 3 μM probe, spectral analysis, Excitation 300-500, Emission 545",Unclear
same,RFU change (Correlation analysis),"[4]; Cellulobiose 5-0.019 mg/ml, 3 μM probe",Unclear
same,RFU change (Signal deviation with increasing [Carbohydrate]),[4]; [10],Unclear
same,λmax change,[4]; [10],No change
same,Gradient Parameters (gradient of regression line),[4]; amylose concentration vs RFU,−28.4 ± 21.6
same,Quality of Gradient,[4]; amylose concentration vs RFU,Horizontal
same,Gradient Parameters (gradient of regression line),[4]; [11],−1.30 ± 12.9
same,Quality of Gradient,[4]; [11],Horizontal
same,Sensitivity,[4]; to amylose,No
same,Sensitivity,[4]; to cellulobiose,No
same,RFU change (Correlation analysis),[5]; Cellulose 10-[…],Increase
same,RFU change (Signal deviation with increasing [Carbohydrate]),[5]; Cellulose 10-[…],Increase
same,λmax change,[5]; Cellulose 10-[…],Redshift
same,carbohydrate can be detected and/or differentiated by the LCO,[5]; Cellulose,can be detected and/or differentiated
same,RFU change (Correlation analysis),[5]; Chitin 10-[…],Increases
same,RFU change (Signal deviation with increasing [Carbohydrate]),[5]; Chitin 10-[…],Increases
same,λmax change,[5]; Chitin 10-[…],Redshift
same,carbohydrate can be detected and/or differentiated by the LCO,[5]; Chitin,can be detected and/or differentiated
same,Gradient Parameters (gradient of regression line),[5]; cellulose concentration vs RFU,194.0 ± 29.9
same,Linear relationship,[5]; cellulose concentration vs RFU,Significant
same,Quality of Gradient,[5]; cellulose concentration vs RFU,Positive
same,Gradient Parameters (gradient of regression line),[5]; chitin concentration vs RFU,338.2 ± 19.4
same,Linear relationship,[5]; chitin concentration vs RFU,Significant
same,Quality of Gradient,[5]; chitin concentration vs RFU,Positive
same,Sensitivity,[5]; to cellulose,Yes
same,Sensitivity,[5]; to chitin,Yes
same,Sensitivity,"[5]; to β-1,3-glucan",Yes
same,carbohydrate can be detected and/or differentiated by the LCO,"[5]; β-1,3-Glucan",can be detected and/or differentiated
same,RFU change (Correlation analysis),"[5]; β-1,3-glucan 10-[…]",Increase
same,RFU change (Signal deviation with increasing [Carbohydrate]),"[5]; β-1,3-glucan 10-[…]",Increase
same,Gradient Parameters (gradient of regression line),[5]; [12],119.1 ± 16.69
same,Quality of Gradient,[5]; [12],Positive
same,RFU change (Correlation analysis),"[6]; Chondroitin Sulfate A 5-0.019 mg/ml, 3 μM probe, probe-specific excitation λ, emission 545 nm",Increases
same,RFU change (Signal deviation with increasing [Carbohydrate]),[6]; [13],Increases
same,λmax change,[6]; [13],No change
same,Gradient Parameters (gradient of regression line),[6]; [14],143.4 ± 10.01
same,Linear relationship,[6]; [14],Significant
same,Quality of Gradient,[6]; [14],Positive
same,carbohydrate can be detected and/or differentiated by the LCO,"[6]; Chondroitin sulfate A, conclusion from change in signal magnitude and/or shift in λmax",can be detected and/or differentiated
same,Sensitivity,[6]; to Chondroitin Sulfate A,Yes
